Assay results from patent publication US20260109708A1, “COMPOUNDS AND COMPOSITIONS USEFUL AS DEGRADERS OF MK2 KINASE” (Celgene Corporation, priority 2023, published 2026).

The compounds below were run against T1, p38a activated, mitogen-activated protein kinase-activated protein kinase 2 (MAPKAP-K2 or MK2) enzyme (Homo sapiens, UniProt P49137) (assay: MK2 OMNIA biochemical assay (AssayQuant continuous-read kinase assay)). Conditions: [MK-2]=0.05 nM, [ATP]=100 μM, [AQT0425]=10 μM.
T1 construct: purchased Invitrogen PV3317
In short: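 Continuous fluorescence read (ex 360/em 485) of p38a-activated MK2 phosphorylating Sox-conjugated peptide AQT0425 in 50 mM HEPES pH 7.5, 10 mM MgCl2, 1 mM DTT; reads every 71 s for 240 min at room temperature. IC50 from initial linear slopes; apparent Kinact from single-exponential Vobs fits.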

T1 sequence (P49137 whole entry): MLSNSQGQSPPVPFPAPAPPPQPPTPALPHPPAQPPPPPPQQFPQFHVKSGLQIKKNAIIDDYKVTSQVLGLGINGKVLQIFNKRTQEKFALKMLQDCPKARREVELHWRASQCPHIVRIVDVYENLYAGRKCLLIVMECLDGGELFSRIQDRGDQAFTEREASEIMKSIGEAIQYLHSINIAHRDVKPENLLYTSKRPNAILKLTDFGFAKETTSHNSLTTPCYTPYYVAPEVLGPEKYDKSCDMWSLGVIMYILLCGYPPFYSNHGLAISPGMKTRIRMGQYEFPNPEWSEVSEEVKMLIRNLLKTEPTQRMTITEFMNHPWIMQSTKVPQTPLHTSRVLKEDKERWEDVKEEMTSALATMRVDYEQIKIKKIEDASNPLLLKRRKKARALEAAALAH

| SMILES | IC50 |
| --- | --- |
| C[C@@H]1CNc2c(sc3ccc4nc(-c5cnn(C6CCN(CCN7CCN(c8ccc9c(C%10CCC(=O)NC%10=O)nn(C)c9c8)CC7)CC6)c5)ccc4c23)C(=O)N1 (stereo partly drawn) [Ex 44, 3-(1-Methyl-6-(4-(2-(4-(4-((R)-10-methyl-8-oxo-9,10,11,12-tetrahydro-8H-[1,4]diazepino[5′,6′:4,5]thieno[3,2-f]quinolin-3-yl)-1H-pyrazol-1-yl)piperidin-1-yl)ethyl)piperazin-1-yl)-1H-indazol-3-yl)piperidine-2,6-dione] | < 150 nM |
| C[C@@H]1CNc2c(sc3ccc4nc(-n5cc(C6CCN(CCN7CCN(c8ccc9c(C%10CCC(=O)NC%10=O)nn(C)c9c8)CC7)CC6)nn5)ccc4c23)C(=O)N1 (stereo partly drawn) [Ex 46, 3-(1-Methyl-6-(4-(2-(4-(1-((R)-10-methyl-8-oxo-9,10,11,12-tetrahydro-8H-[1,4]diazepino[5′,6′:4,5]thieno[3,2-f]quinolin-3-yl)-1H-1,2,3-triazol-4-yl)piperidin-1-yl)ethyl)piperazin-1-yl)-1H-indazol-3-yl)piperidine-2,6-dione] | < 150 nM |
| C[C@@H]1CNc2c(sc3ccc4nc(-n5cc(C6CCN(CCN7CCC(c8ccc(C9CCC(=O)NC9=O)cc8)CC7)CC6)nn5)ccc4c23)C(=O)N1 (stereo partly drawn) [Ex 47, 3-(4-(1-(2-(4-(1-((R)-10-Methyl-8-oxo-9,10,11,12-tetrahydro-8H-[1,4]diazepino[5′,6′:4,5]thieno[3,2-f]quinolin-3-yl)-1H-1,2,3-triazol-4-yl)piperidin-1-yl)ethyl)piperidin-4-yl)phenyl)piperidine-2,6-dione] | < 150 nM |
| C[C@@H]1CNc2c(sc3ccc4nc(-c5cn(C6CCN(CCN7CCC(c8ccc(C9CCC(=O)NC9=O)cc8)CC7)CC6)nn5)ccc4c23)C(=O)N1 (stereo partly drawn) [Ex 48, 3-(4-(1-(2-(4-(4-((R)-10-Methyl-8-oxo-9,10,11,12-tetrahydro-8H-[1,4]diazepino[5′,6′:4,5]thieno[3,2-f]quinolin-3-yl)-1H-1,2,3-triazol-1-yl)piperidin-1-yl)ethyl)piperidin-4-yl)phenyl)piperidine-2,6-dione] | < 150 nM |
| C[C@@H]1CNc2c(sc3ccc4nc(-c5cn(C6CCN(CCN7CCN(c8ccc9c(C%10CCC(=O)NC%10=O)nn(C)c9c8)CC7)CC6)nn5)ccc4c23)C(=O)N1 (stereo partly drawn) [Ex 50, 3-(1-Methyl-6-(4-(2-(4-(4-((R)-10-methyl-8-oxo-9,10,11,12-tetrahydro-8H-[1,4]diazepino[5′,6′:4,5]thieno[3,2-f]quinolin-3-yl)-1H-1,2,3-triazol-1-yl)piperidin-1-yl)ethyl)piperazin-1-yl)-1H-indazol-3-yl)piperidine-2,6-dione] | < 150 nM |
| C[C@@H]1CNc2c(sc3ccc4nc(-c5cnn(C6CN(CCN7CCN(c8ccc9c(C%10CCC(=O)NC%10=O)nn(C)c9c8)CC7)C6)c5)ccc4c23)C(=O)N1 (stereo partly drawn) [Ex 52, 3-(1-Methyl-6-(4-(2-(3-(4-((R)-10-methyl-8-oxo-9,10,11,12-tetrahydro-8H-[1,4]diazepino[5′,6′:4,5]thieno[3,2-f]quinolin-3-yl)-1H-pyrazol-1-yl)azetidin-1-yl)ethyl)piperazin-1-yl)-1H-indazol-3-yl)piperidine-2,6-dione] | < 150 nM |
| C[C@@H]1CNc2c(sc3ccc4nc(-n5cc(C6CN(CCN7CCC(c8ccc(C9CCC(=O)NC9=O)cc8)CC7)C6)nn5)ccc4c23)C(=O)N1 (stereo partly drawn) [Ex 54, 3-(4-(1-(2-(3-(1-((R)-10-Methyl-8-oxo-9,10,11,12-tetrahydro-8H-[1,4]diazepino[5′,6′:4,5]thieno[3,2-f]quinolin-3-yl)-1H-1,2,3-triazol-4-yl)azetidin-1-yl)ethyl)piperidin-4-yl)phenyl)piperidine-2,6-dione] | < 150 nM |

Second part, the compound after the results:

| IC50 | SMILES |
| --- | --- |
| < 150 nM | C[C@@H]1CNc2c(sc3ccc4nc(-c5ccc(N6CC(CN7CCN(c8ccc(C9CCC(=O)NC9=O)cc8)CC7)C6)cc5)ccc4c23)C(=O)N1 (stereo partly drawn) [Ex 41, 3-(4-(4-((1-(4-((R)-10-Methyl-8-oxo-9,10,11,12-tetrahydro-8H-[1,4]diazepino[5′,6′:4,5]thieno[3,2-f]quinolin-3-yl)phenyl)azetidin-3-yl)methyl)piperazin-1-yl)phenyl)piperidine-2,6-dione] |
| < 150 nM | C[C@@H]1CNc2c(sc3ccc4nc(-c5ccc(N6CC(CCN7CCN(c8ccc(C9CCC(=O)NC9=O)cc8)CC7)C6)cc5)ccc4c23)C(=O)N1 (stereo partly drawn) [Ex 42, 3-(4-(4-(2-(1-(4-((R)-10-Methyl-8-oxo-9,10,11,12-tetrahydro-8H-[1,4]diazepino[5′,6′:4,5]thieno[3,2-f]quinolin-3-yl)phenyl)azetidin-3-yl)ethyl)piperazin-1-yl)phenyl)piperidine-2,6-dione] |
| < 150 nM | C[C@@H]1CNc2c(sc3ccc4nc(-c5cnn(C6CCN(CCN7CCN(c8ccc(C9CCC(=O)NC9=O)cc8)CC7)CC6)c5)ccc4c23)C(=O)N1 (stereo partly drawn) [Ex 43, 3-(4-(4-(2-(4-(4-((R)-10-Methyl-8-oxo-9,10,11,12-tetrahydro-8H-[1,4]diazepino[5′,6′:4,5]thieno[3,2-f]quinolin-3-yl)-1H-pyrazol-1-yl)piperidin-1-yl)ethyl)piperazin-1-yl)phenyl)piperidine-2,6-dione] |
| < 150 nM | C[C@@H]1CNc2c(sc3ccc4nc(-n5cc(C6CCN(CCN7CCN(c8ccc(C9CCC(=O)NC9=O)cc8)CC7)CC6)nn5)ccc4c23)C(=O)N1 (stereo partly drawn) [Ex 45, 3-(4-(4-(2-(4-(1-((R)-10-Methyl-8-oxo-9,10,11,12-tetrahydro-8H-[1,4]diazepino[5′,6′:4,5]thieno[3,2-f]quinolin-3-yl)-1H-1,2,3-triazol-4-yl)piperidin-1-yl)ethyl)piperazin-1-yl)phenyl)piperidine-2,6-dione] |
| < 150 nM | C[C@@H]1CNc2c(sc3ccc4nc(-c5cn(C6CCN(CCN7CCN(c8ccc(C9CCC(=O)NC9=O)cc8)CC7)CC6)nn5)ccc4c23)C(=O)N1 (stereo partly drawn) [Ex 49, 3-(4-(4-(2-(4-(4-((R)-10-Methyl-8-oxo-9,10,11,12-tetrahydro-8H-[1,4]diazepino[5′,6′:4,5]thieno[3,2-f]quinolin-3-yl)-1H-1,2,3-triazol-1-yl)piperidin-1-yl)ethyl)piperazin-1-yl)phenyl)piperidine-2,6-dione] |
| < 150 nM | C[C@@H]1CNc2c(sc3ccc4nc(-c5cnn(C6CN(CCN7CCN(c8ccc(C9CCC(=O)NC9=O)cc8)CC7)C6)c5)ccc4c23)C(=O)N1 (stereo partly drawn) [Ex 51, 3-(4-(4-(2-(3-(4-((R)-10-Methyl-8-oxo-9,10,11,12-tetrahydro-8H-[1,4]diazepino[5′,6′:4,5]thieno[3,2-f]quinolin-3-yl)-1H-pyrazol-1-yl)azetidin-1-yl)ethyl)piperazin-1-yl)phenyl)piperidine-2,6-dione] |
| < 150 nM | C[C@@H]1CNc2c(sc3ccc4nc(-n5cc(C6CN(CCN7CCN(c8ccc(C9CCC(=O)NC9=O)cc8)CC7)C6)nn5)ccc4c23)C(=O)N1 (stereo partly drawn) [Ex 53, 3-(4-(4-(2-(3-(1-((R)-10-Methyl-8-oxo-9,10,11,12-tetrahydro-8H-[1,4]diazepino[5′,6′:4,5]thieno[3,2-f]quinolin-3-yl)-1H-1,2,3-triazol-4-yl)azetidin-1-yl)ethyl)piperazin-1-yl)phenyl)piperidine-2,6-dione] |
| 501 to 1000 nM | C[C@@H]1COc2c(sc3ccc4nc(C#CC5CCN(C(=O)C(=O)N6CCN(c7ccc(C8CCC(=O)NC8=O)cc7)CC6)CC5)ccc4c23)C(=O)N1 (stereo partly drawn) [Ex 55, 3-(4-(4-(2-(4-(((R)-10-Methyl-8-oxo-8,9,10,11-tetrahydro-[1,4]oxazepino[7′,6′:4,5]thieno[3,2-f]quinolin-3-yl)ethynyl)piperidin-1-yl)-2-oxoacetyl)piperazin-1-yl)phenyl)piperidine-2,6-dione] |
